Source: patent US7235577B1 (priority 2000, dated 2007)

Tests used:
[1] = tested on: Jurkat E6-1 cells; test: In vitro toxicity, propidium iodide uptake, 48 h; assay type: cell-based, human
Protocol: (§1) The in vitro toxicity was performed as follows.

[2] = tested on: C2F3 cells; test: In vitro toxicity, propidium iodide uptake, 48 h; assay type: cell-based, human
Protocol: as §1

[3] = tested on: NLF cells; test: In vitro toxicity, propidium iodide uptake, 48 h; assay type: cell-based, human
Protocol: as §1

[4] = tested on: NGP cells; test: In vitro toxicity, propidium iodide uptake, 48 h; assay type: cell-based, human
Protocol: as §1

[5] = target: T1, rKir2.1 (Rattus norvegicus, UniProt Q64273); test: Selectivity patch clamp, RBL inward rectifier; assay type: cell-based; conditions: RBL cells; slope conductance at −110 mV
T1 construct: endogenous in cells; host or cells: RBL (rat basophilic leukemia)
Protocol: (§2) L929 cells stably expressing mKv1.1, rKv1.2, mKv1.3, and mKv3.1 and MEL cells stably expressing hKv1.5 have been previously described (Grissmer 1994, Mol. Pharmacol. 45: 1227). hKv1.4 and rKv4.2 were stably expressed in LTK (HK1–7). Channel expression was induced 8–12 h before the electrophysiological experiments by 4 μM dexamethasone (Sigma). HEK-293 cells stably expressing the skeletal muscle sodium channel hSkM1 (SCN4A) were generated in the laboratory of Dr. F. Lehmann-Horn. HEK-293 cells stably expressing hSloα were obtained from Dr. Andrew Tinker (Center for Clinical Pharmacology, University College London). L929, MEL, LTK and HEK cells were maintained in DMEM containing 10% heat-inactivated fetal calf serum (Summit Biotechnology, Fort Collins, Colo.) and 250 μg/ml G418 (Life Technologies, Inc.). Rat basophilic leukemia (RBL) cells were maintained in Eagle's minimum essential medium with 2 mM L-glutamine and 10% fetal calf serum. CHO cell were maintained in F12K media (ATCC). Human leukemic Jurkat E6–1 cells were cultured in RPMI 1640 supplemented with 10% fetal calf serum and 1 mM L-glutamine. T84 cells were maintained in a 1:1 mixture of Ham's F12 medium and DMEM with 2.5 mM L-glutamine and 10% fetal calf serum.
(§3) Recordings from the Jurkat SKCa channel were made in K^+ aspartate Ringer (Na^+ was replaced by K^+) with the same internal pipette solution. […]

[6] = tested on: RBL-2H3 cells; test: In vitro toxicity, propidium iodide uptake, 48 h; assay type: cell-based, rat
Protocol: as §1

[7] = tested on: COS-7 cells; test: In vitro toxicity, propidium iodide uptake, 48 h; assay type: cell-based, African green monkey
Protocol: as §1

[8] = target: T2, mKv1.3 (Mus musculus, UniProt P16390); test: Selectivity patch clamp, L929 cells expressing mKv1.3; assay type: cell-based
T2 construct: expressed in transfected cells; host or cells: L929
Protocol: as §2, §3

[9] = tested on: COS-7 chloride channel; test: Selectivity patch clamp, native chloride channels in COS-7 cells; assay type: cell-based, African green monkey; conditions: native chloride channel of COS-7 cells
Protocol: Electrophysiological experiments were carried out in the whole-cell configuration of the patch-clamp technique using an EPC-9 amplifier (HEKA Elektronik, Lambrecht Germany) interfaced to a computer running acquisition and analysis software (Pulse and Pulsfit; HEKA Elektronik). Pipettes were pulled from soft glass capillaries, coated with Sylgard (Dow-Corning, Midland, Mich.), and fire polished to resistances of 2.0–4.5 MΩ measured in the bath. COS-7 cells were trypsinized and plated on glass coverslips 3 h before measurement. […] To prevent activation of the native chloride channels in COS-7 cells an aspartate Ringer solution was used as an external solution (160 mM Na^+ aspartate, 4.5 mM KCl, 2 mM CaCl2, 1 mM MgCl2, 5 mM HEPES, adjusted to pH 7.4 with NaOH, with an osmolarity of 290–310 mosM). 200 ms voltage ramps from −120 mV to 40 mV every 10 s were used. The holding potential in all experiments was −80 mV. Series resistance compensation was not employed. The reduction of slope conductance at −80 mV was used to determine the Kd-value by fitting the values to the Hill equation with a Hill coefficient of unity.
as §3

[10] = target: CYP3A4 (Homo sapiens, UniProt P08684); test: in vitro; conditions: human
Protocol: (§4) The test substances shown in Table 8 were evaluated for their inhibitory effect on the catalytic activity of human cytochrome P450 enzyme. Cytochrome P450 3A4 (CYP3A4) is involved in many drug-drug interactions and in many other pathways in the body including the catabolism of steroids and xenobiotics. Inhibition of this enzyme was measured in 96 well plates with 7-benzyloxy-4-trifluoro-methylcoumarin (BFC) as the substrate and cDNA-derived enzymes in microsomes prepared from baculovirus-infected insect cells.
(§5) The inhibition study consisted of the determination of inhibition by the test substance on CYP3A4 catalytic activity. […] The compounds were prepared as 10 mM stock solutions in acetonitrile. Metabolism of the model substrate was assayed by the production of 7-hydroxy-4-trifluoromethylcoumarin metabolite. The metabolite was detected by fluorescence.
(§6) Table 10 below provides a list of the name of enzymes examined, the catalog number of the microsomes used as a source of the enzyme, the concentration of the model substrate used, the amount of enzyme used, the final buffer concentration, and the positive control compound.
(§7) Assays were conducted in 96 well microtiter plates. The BFC substrate was initially prepared in acetonitrile. […] Six wells were used for one test. […] For the positive controls, 12 wells in a row were used for one test. The positive control inhibitor/enzyme combination was examined in duplicate rows. Wells 1 to 8 contained serial 1:3 dilutions of the inhibitors. The highest inhibitor concentration were as described in the table above. Wells 9 and 10 contained no inhibitor and wells 11 and 12 were blanks for background fluorescence (stop solution added before the enzyme).
(§8) After buffer, cofactors and inhibitor addition, the plates were pre-warmed to 37° C. Incubations were initiated by the addition of pre-warmed enzyme and substrate. The final cofactor concentrations were 1.3 mM NADP, 3.3 mM glucose-6-phosphate and 0.4 U/ml glucose-6-phosphate dehydrogenase. The final incubation volume was 0.2 ml. Incubations were carried out for 30 minutes [CYP3A4 (BFC)] and stopped by the addition of 0.075 ml of 80% acetonitrile-20% 0.5M Tris. Fluorescence per well was measured using a BMG FLUOstar fluorescence plate reader. The BFC metabolite 7-hydroxy-4-trifluoromethyl-coumarin was measured using an excitation wavelength of 410 nm and emission wavelength of 538 nm.

[11] = target: human cytochrome P450 3A4 (CYP3A4) (Homo sapiens, UniProt P08684); test: in vitro
Protocol: as §4, §5, §6, §7, §8

[12] = target: Kv1.1–1.5, Kv3.1, Kv4.2, Jurkat-SKCa, BKCa, hSKM1-Na, CRAC and lymphocyte chloride channels; test: Selectivity on other cloned and native ion channels; assay type: cell-based; conditions: all channels of the panel
Protocol: as §2, §3

Chain of human cytochrome P450 3A4 (CYP3A4) (P08684 whole entry): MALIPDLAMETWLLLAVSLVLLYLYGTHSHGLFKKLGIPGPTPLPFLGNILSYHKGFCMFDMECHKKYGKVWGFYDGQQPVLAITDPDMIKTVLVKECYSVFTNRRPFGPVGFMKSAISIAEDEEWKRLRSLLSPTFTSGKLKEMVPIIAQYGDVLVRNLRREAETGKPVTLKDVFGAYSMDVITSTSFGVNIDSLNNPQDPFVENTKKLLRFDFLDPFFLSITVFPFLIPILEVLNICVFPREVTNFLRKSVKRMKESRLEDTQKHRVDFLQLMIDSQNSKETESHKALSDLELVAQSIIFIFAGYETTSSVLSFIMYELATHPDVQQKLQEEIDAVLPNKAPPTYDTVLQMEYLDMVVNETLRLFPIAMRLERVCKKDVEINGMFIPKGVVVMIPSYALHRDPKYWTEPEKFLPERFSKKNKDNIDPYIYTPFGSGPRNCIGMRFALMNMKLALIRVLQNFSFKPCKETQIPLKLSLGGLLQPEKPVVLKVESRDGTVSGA
T1 sequence (Q64273 whole entry): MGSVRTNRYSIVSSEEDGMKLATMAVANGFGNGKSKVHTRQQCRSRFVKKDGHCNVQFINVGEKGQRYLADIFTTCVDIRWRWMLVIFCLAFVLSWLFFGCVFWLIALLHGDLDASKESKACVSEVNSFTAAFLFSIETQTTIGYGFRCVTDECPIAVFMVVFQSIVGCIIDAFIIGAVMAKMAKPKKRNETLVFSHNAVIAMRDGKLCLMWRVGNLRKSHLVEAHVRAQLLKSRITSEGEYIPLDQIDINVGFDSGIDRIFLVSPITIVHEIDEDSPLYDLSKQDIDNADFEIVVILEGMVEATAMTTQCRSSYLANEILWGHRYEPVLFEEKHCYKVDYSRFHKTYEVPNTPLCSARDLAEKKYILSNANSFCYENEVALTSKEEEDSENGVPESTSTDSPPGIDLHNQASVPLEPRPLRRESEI
T2 sequence (P16390 whole entry): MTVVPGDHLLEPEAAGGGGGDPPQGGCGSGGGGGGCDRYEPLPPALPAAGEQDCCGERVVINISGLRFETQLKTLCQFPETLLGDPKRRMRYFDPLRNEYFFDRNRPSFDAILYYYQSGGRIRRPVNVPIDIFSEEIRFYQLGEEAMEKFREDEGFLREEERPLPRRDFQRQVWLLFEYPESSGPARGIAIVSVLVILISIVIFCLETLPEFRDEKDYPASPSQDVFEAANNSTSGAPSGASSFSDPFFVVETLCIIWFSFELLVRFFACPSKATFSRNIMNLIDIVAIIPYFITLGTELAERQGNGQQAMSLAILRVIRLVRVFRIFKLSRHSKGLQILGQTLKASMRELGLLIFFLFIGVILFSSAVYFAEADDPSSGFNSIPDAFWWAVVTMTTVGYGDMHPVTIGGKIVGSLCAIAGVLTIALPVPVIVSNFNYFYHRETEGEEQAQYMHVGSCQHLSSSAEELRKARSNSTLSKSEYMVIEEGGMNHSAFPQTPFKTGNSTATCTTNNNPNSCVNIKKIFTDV
Chain of CYP3A4 (P08684 whole entry): as the sequence (P08684 whole entry) above

Clc1ccccc1C(c1ccccc1)(c1ccccc1)n1cccn1 [Compound T34, 1-[(2-Chlorophenyl)diphenylmethyl]-1H-pyrazole]
percentage of dead cells (PI uptake) ([1]; 2 μM): 2.5%
percentage of dead cells (PI uptake) ([1]; 5 μM): 3.2%
percentage of dead cells (PI uptake) ([2]; 2 μM): 15.8%
percentage of dead cells (PI uptake) ([2]; 5 μM): 12.8%
percentage of dead cells (PI uptake) ([3]; 2 μM): 10.8%
percentage of dead cells (PI uptake) ([3]; 5 μM): 10.8%
percentage of dead cells (PI uptake) ([4]; 2 μM): 10.9%
percentage of dead cells (PI uptake) ([4]; 5 μM): 5.9%
Block of rKir2.1 [5]: no effect at 10 μM
percentage of dead cells (PI uptake) ([6]; 2 μM): 7.9%
percentage of dead cells (PI uptake) ([6]; 5 μM): 8.8%
percentage of dead cells (PI uptake) ([7]; 2 μM): 3.6%
percentage of dead cells (PI uptake) ([7]; 5 μM): 4.5%
Kd [8]: 5 ± 0.35 µM
Block of COS-7 (Cl) [9]: no effect at 10 μM
inhibition at 30 min, 10 μM [10]: -77.5%
EC50 for inhibition of CYP3A4 ([11]; T34 tested up to 10 μM): No inhibitory
Inhibition of CYP3A4 activity ([11]; up to 10 μM): does not inhibit the activity of CYP3A4
Kd [12]: ≥ 5 µM
